From the supplement of paper PMC10307832

Legend:
Experiment in all cases: relative viability (nuclei count vs DMSO), 5 days (fraction); higher = more cells survive
DM3189 + Palbociclib = compound: C1CN(CCN1)C2=CC=C(C=C2)C3=CN4C(=C(C=N4)C5=CC=NC6=CC=CC=C56)N=C3 [DM3189] + CC(=O)c1c(C)c2cnc(Nc3ccc(N4CCNCC4)cn3)nc2n(C2CCCC2)c1=O [Palbociclib] (partner 0.5 µM)
Method in brief: (§1)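 Relative viability equals treated-well nuclei counts divided by vehicle-well nuclei counts. Counts came from 4× images of lung cancer cell lines grown in 1536-well plates for 5 days after pin-tool dosing on the day after seeding. Dosing used one drug alone or a fixed anchor-drug dose plus five library-drug doses (not always all listed) in √10 steps, and values are medians of duplicate plates.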

DM3189 + Trametinib = compound: C1CN(CCN1)C2=CC=C(C=C2)C3=CN4C(=C(C=N4)C5=CC=NC6=CC=CC=C56)N=C3 [DM3189] + CC(=O)Nc1cccc(-n2c(=O)n(C3CC3)c(=O)c3c(Nc4ccc(I)cc4F)n(C)c(=O)c(C)c32)c1 [Trametinib] (partner 0.02 µM)
Method in brief: as §1

DM3189 + Olaparib = compound: C1CN(CCN1)C2=CC=C(C=C2)C3=CN4C(=C(C=N4)C5=CC=NC6=CC=CC=C56)N=C3 [DM3189] + O=C(c1cc(Cc2n[nH]c(=O)c3ccccc23)ccc1F)N1CCN(C(=O)C2CC2)CC1 [Olaparib] (partner 8 µM)
Method in brief: as §1

DM3189 + Pemetrexed = compound: C1CN(CCN1)C2=CC=C(C=C2)C3=CN4C(=C(C=N4)C5=CC=NC6=CC=CC=C56)N=C3 [DM3189] + Nc1nc2[nH]cc(CCc3ccc(C(=O)N[C@@H](CCC(=O)O)C(=O)O)cc3)c2c(=O)[nH]1 [Pemetrexed] (partner 0.2 µM)
Method in brief: as §1

DM3189 + Tozasertib = compound: C1CN(CCN1)C2=CC=C(C=C2)C3=CN4C(=C(C=N4)C5=CC=NC6=CC=CC=C56)N=C3 [DM3189] + Cc1cc(Nc2cc(N3CCN(C)CC3)nc(Sc3ccc(NC(=O)C4CC4)cc3)n2)n[nH]1 [Tozasertib] (partner 0.1 µM)
Method in brief: as §1

DM3189 + OSI-027 = compound: C1CN(CCN1)C2=CC=C(C=C2)C3=CN4C(=C(C=N4)C5=CC=NC6=CC=CC=C56)N=C3 [DM3189] + COc1cccc2cc(-c3nc([C@H]4CC[C@H](C(=O)O)CC4)n4ncnc(N)c34)[nH]c12 [OSI-027] (partner 0.5 µM)
Method in brief: as §1

DM3189 + Dasatinib = compound: C1CN(CCN1)C2=CC=C(C=C2)C3=CN4C(=C(C=N4)C5=CC=NC6=CC=CC=C56)N=C3 [DM3189] + Cc1nc(Nc2ncc(C(=O)Nc3c(C)cccc3Cl)s2)cc(N2CCN(CCO)CC2)n1 [Dasatinib] (partner 0.075 µM)
Method in brief: as §1

DM3189 + Luminespib = compound: C1CN(CCN1)C2=CC=C(C=C2)C3=CN4C(=C(C=N4)C5=CC=NC6=CC=CC=C56)N=C3 [DM3189] + CCNC(=O)c1noc(-c2cc(C(C)C)c(O)cc2O)c1-c1ccc(CN2CCOCC2)cc1 [Luminespib] (partner 0.01 µM)
Method in brief: as §1

DM3189 + AZD7762 = compound: C1CN(CCN1)C2=CC=C(C=C2)C3=CN4C(=C(C=N4)C5=CC=NC6=CC=CC=C56)N=C3 [DM3189] + NC(=O)Nc1cc(-c2cccc(F)c2)sc1C(=O)N[C@H]1CCCNC1 [AZD7762] (partner 0.2 µM)
Method in brief: as §1

DM3189 + Phenformin = compound: C1CN(CCN1)C2=CC=C(C=C2)C3=CN4C(=C(C=N4)C5=CC=NC6=CC=CC=C56)N=C3 [DM3189] + N=C(N)NC(=N)NCCc1ccccc1 [Phenformin] (partner 250 µM)
Method in brief: as §1

DM3189 + Decitabine = compound: C1CN(CCN1)C2=CC=C(C=C2)C3=CN4C(=C(C=N4)C5=CC=NC6=CC=CC=C56)N=C3 [DM3189] + Nc1ncn([C@H]2C[C@H](O)[C@@H](CO)O2)c(=O)n1 [Decitabine] (partner 2 µM)
Method in brief: as §1

DM3189 + Vorinostat = compound: C1CN(CCN1)C2=CC=C(C=C2)C3=CN4C(=C(C=N4)C5=CC=NC6=CC=CC=C56)N=C3 [DM3189] + O=C(CCCCCCC(=O)Nc1ccccc1)NO [Vorinostat] (partner 1 µM)
Method in brief: as §1

DM3189 = compound: C1CN(CCN1)C2=CC=C(C=C2)C3=CN4C(=C(C=N4)C5=CC=NC6=CC=CC=C56)N=C3 [DM3189]
Method in brief: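 Hoechst staining, done together with fixation and permeabilisation, marked nuclei for 4× imaging and MetaXpress counting. This followed 5 days without medium change after lung cancer cell lines, kept overnight at 37 °C in 1536-well plates, were pinned with five library-drug doses (not always all listed) spaced by √10 on vehicle-anchored plates. Viability is the ratio of treated-well to vehicle-well nuclei, expressed as a median across plates. Plates passed only at control CV below 25% with at least one doubling.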

Question: Which results are given for NCI-H522?
Answer: relative viability (DM3189 + Palbociclib; first compound 0.08 µM): 1.27; relative viability (DM3189 + Palbociclib; first compound 0.253 µM): 0.808; relative viability (DM3189 + Palbociclib; first compound 0.8 µM): 1.1; relative viability (DM3189 + Palbociclib; first compound 2.53 µM): 0.998; relative viability (DM3189 + Trametinib; first compound 0.08 µM): 0.777; relative viability (DM3189 + Trametinib; first compound 0.253 µM): 0.777; relative viability (DM3189 + Trametinib; first compound 0.8 µM): 0.656; relative viability (DM3189 + Trametinib; first compound 2.53 µM): 0.747; relative viability (DM3189 + Olaparib; first compound 0.08 µM): 0.663; relative viability (DM3189 + Olaparib; first compound 0.253 µM): 0.651; relative viability (DM3189 + Olaparib; first compound 0.8 µM): 0.607; relative viability (DM3189 + Olaparib; first compound 2.53 µM): 0.709; relative viability (DM3189 + Pemetrexed; first compound 0.08 µM): 0.992; relative viability (DM3189 + Pemetrexed; first compound 0.253 µM): 0.898; relative viability (DM3189 + Pemetrexed; first compound 0.8 µM): 0.767; relative viability (DM3189 + Pemetrexed; first compound 2.53 µM): 0.873; relative viability (DM3189 + Tozasertib; first compound 0.08 µM): 0.602; relative viability (DM3189 + Tozasertib; first compound 0.253 µM): 0.582; relative viability (DM3189 + Tozasertib; first compound 0.8 µM): 0.552; relative viability (DM3189 + Tozasertib; first compound 2.53 µM): 0.494; relative viability (DM3189 + OSI-027; first compound 0.08 µM): 0.796; relative viability (DM3189 + OSI-027; first compound 0.253 µM): 0.695; relative viability (DM3189 + OSI-027; first compound 0.8 µM): 0.685; relative viability (DM3189 + OSI-027; first compound 2.53 µM): 0.828; relative viability (DM3189 + Dasatinib; first compound 0.08 µM): 1.04; relative viability (DM3189 + Dasatinib; first compound 0.253 µM): 0.929; relative viability (DM3189 + Dasatinib; first compound 0.8 µM): 0.838; relative viability (DM3189 + Dasatinib; first compound 2.53 µM): 0.8; relative viability (DM3189 + Luminespib; first compound 0.08 µM): 1.31; relative viability (DM3189 + Luminespib; first compound 0.253 µM): 0.984; relative viability (DM3189 + Luminespib; first compound 0.8 µM): 1.27; relative viability (DM3189 + Luminespib; first compound 2.53 µM): 1.16; relative viability (DM3189 + AZD7762; first compound 0.08 µM): 0.949; relative viability (DM3189 + AZD7762; first compound 0.253 µM): 0.775; relative viability (DM3189 + AZD7762; first compound 0.8 µM): 0.648; relative viability (DM3189 + AZD7762; first compound 2.53 µM): 0.704; relative viability (DM3189 + Phenformin; first compound 0.08 µM): 0.675; relative viability (DM3189 + Phenformin; first compound 0.253 µM): 0.591; relative viability (DM3189 + Phenformin; first compound 0.8 µM): 0.592; relative viability (DM3189 + Phenformin; first compound 2.53 µM): 0.617; relative viability (DM3189 + Decitabine; first compound 0.08 µM): 0.592; relative viability (DM3189 + Decitabine; first compound 0.253 µM): 0.652; relative viability (DM3189 + Decitabine; first compound 0.8 µM): 0.667; relative viability (DM3189 + Decitabine; first compound 2.53 µM): 0.636; relative viability (DM3189 + Vorinostat; first compound 0.08 µM): 1.1; relative viability (DM3189 + Vorinostat; first compound 0.253 µM): 0.832; relative viability (DM3189 + Vorinostat; first compound 0.8 µM): 0.855; relative viability (DM3189 + Vorinostat; first compound 2.53 µM): 0.988; relative viability (DM3189; 0.08 µM): 1.27; relative viability (DM3189; 0.253 µM): 0.891; relative viability (DM3189; 0.8 µM): 0.882; relative viability (DM3189; 2.53 µM): 0.886
